# From patent publication US20230285417A1, “FORMULATIONS OF 19-NOR C3,3-DISUBSTITUTED C21-N-PYRAZOLYL STEROID AND METHODS OF USE THEREOF” (priority 2020, published 2023)
# What was measured:
# Assay type in all cases: physicochemical
# [1] = Solubility of the compound of formula (I) in aqueous media (water, pH 1.2 simulated gastric fluid, FaSSIF)
# From the text: (§1) The compound of formula (I) belongs in the high permeability, poor solubility drug classification (BCS 2) described in the Biopharmaceutics Classification System (BCS). In the improved widely accepted Developability Classification System (DCS) discussed by Butler and Dressman, the high permeability low solubility category is further divided into two classifications. Specifically, the ratio of the dose to the solubility of the drug in FaSSIF can be used to predict the extent of human absorption. Class 2a describes compounds that have good permeability and poor solubility with a smaller dose to solubility ratio. Class 2b describes compounds that have a higher dose to solubility ratio and likely will be incompletely absorbed unless the drug is formulated in an already solubilized form, and therefore might present a major challenge to the formulator. […] That is, even for a dose of 10 mg about only 1.2% of the dose of the drug may dissolve in a glass of water or FaSSIF. For Class 2b compounds the system predicts that particle reduction should have no impact on bioavailability. Martinez and Amidon offer: “In the case of solubility-limited absorption particle size exerts minimal effect on the fraction of drug absorbed. […]
# [2] = Biopharmaceutics Classification System (BCS) classification; settings: high permeability, poor solubility
# From the text: as §1
# [3] = Particle size distribution by laser diffraction (Malvern Mastersizer 2000); settings: for D10 / D50 / D90: lot of micronized Form C of Compound 1 used in capsules of Table 16
# Procedure: The particle size distribution of Compound 1 was measured using a laser diffraction method. A sample of Compound 1 was either dispersed in water or wetted and dispersed in 0.2% w/v Tween 80 in water to a final concentration spanning approximately 2.5 to 60 mg/mL. Using a Malvern Mastersizer 2000 with a Hydro 2000S sample dispersion unit the obscuration was adjusted to between 10 and 30%. The stir speed was adjusted to 2250-2500 rpm, pre-measurement delay to approximately 30 s, sample measurement time to around 10-15 s, background measurement time to around 10-15 s and the particle shape assumed to be irregular. The samples were at a concentration between 0.0032-0.0044% vol and had specific surface area between 1.65 and 2.10 m2/g, a surface weighted mean between 2.87 and 3.64 μm, and a volume weighed mean between 3.62 and 4.67 μm. The measurements were obtained using the Mie scattering model (material refractive index=1.520, dispersant refractive index=1.330, absorption=0.001 or 0.1) with normal sensitivity.
# Representative particle size distribution data for lots of un-micronized and micronized Form C of Compound 1 are shown in Table 7. In addition, representative particle size distribution for micronized Form A of Compound 1 is also included in Table 7. FIG. 4A, FIG. 4B and FIG. 4C also contain particle size distribution profiles for three representative lots of micronized Form C of Compound 1. FIG. 13A and FIG. 13B contain particle size distribution profiles for micronized and un-micronized Form C of Compound 1a. FIG. 14A and FIG. 14B contain particle size distribution profiles for micronized and un-micronized Form C of Compound 1b. FIG. 15A and FIG. 15B contain particle size distribution profiles for micronized and un-micronized Form C of Compound 1c. FIG. 16A and FIG. 16B contain particle size distribution profiles for micronized and un-micronized Form C of Compound 1d.
# [4] = lot used in Composition 30, 8 kg blend batch, 20 mg dose strength
# [5] = lot used in Composition 30, 12 kg blend batch, 30 mg dose strength
# [6] = lot used in Composition 30, 34.7 kg blend batch, 20 mg dose strength
# [7] = lot used in Composition 30, 52 kg blend batch, 30 mg dose strength
smiles,measurement,setting,value
"C[C@@]1(O)CC[C@H]2[C@H](CC[C@@H]3[C@@H]2CC[C@]2(C)[C@@H](C(=O)Cn4cc(C#N)cn4)CC[C@@H]32)C1 [Compound 1, 1-(2-((3R,5R,8R,9R,10S,13S,14S,17S)-3-hydroxy-3,13-dimethylhexadecahydro-1H-cyclopenta[a]phenanthren-17-yl)-2-oxoethyl)-1H-pyrazole-4-carbonitrile]",% of the dose that may dissolve in a glass of water or FaSSIF,[1]; 10 mg dose,~1.2%
same,solubility in aqueous media,"[1]; water, pH 1.2 simulated gastric fluid, FaSSIF",practically insoluble
same,"drug classification, Biopharmaceutics Classification System (BCS)",[2],BCS 2
C[C@@]1(O)CC[C@H]2[C@H](CC[C@@H]3[C@@H]2CC[C@]2(C)[C@@H](C(=O)Cn4cc(C#N)cn4)CC[C@@H]32)C1 [Lot C],D10,[3]; listed as C,2.1 μm
same,D50,[3]; listed as C,4.0 μm
same,D90,[3]; listed as C,7.7 μm
C[C@@]1(O)CC[C@H]2[C@H](CC[C@@H]3[C@@H]2CC[C@]2(C)[C@@H](C(=O)Cn4cc(C#N)cn4)CC[C@@H]32)C1 [Lot A],D10,[3]; listed as A,1.7 μm
same,D50,[3]; listed as A,3.3 μm
same,D90,[3]; listed as A,6.8 μm
C[C@@]1(O)CC[C@H]2[C@H](CC[C@@H]3[C@@H]2CC[C@]2(C)[C@@H](C(=O)Cn4cc(C#N)cn4)CC[C@@H]32)C1 [Lot B],D10,[3]; listed as B,1.9 μm
same,D50,[3]; listed as B,3.5 μm
same,D90,[3]; listed as B,6.6 μm
C[C@@]1(O)CC[C@H]2[C@H](CC[C@@H]3[C@@H]2CC[C@]2(C)[C@@H](C(=O)Cn4cc(C#N)cn4)CC[C@@H]32)C1 [Micronized Form C of Compound 1],Particle Size Distribution D10,[3]; [4],1.7
same,Particle Size Distribution D50,[3]; [4],3.2
same,Particle Size Distribution D90,[3]; [4],6.1
same,Particle Size Distribution D10,[3]; [5],1.7
same,Particle Size Distribution D50,[3]; [5],3.2
same,Particle Size Distribution D90,[3]; [5],6.1
same,Particle Size Distribution D10,[3]; [6],1.8
same,Particle Size Distribution D50,[3]; [6],3.3
same,Particle Size Distribution D90,[3]; [6],6.5
same,Particle Size Distribution D10,[3]; [7],2.1
same,Particle Size Distribution D50,[3]; [7],4.1
same,Particle Size Distribution D90,[3]; [7],8.0
